Measurements from article PMC3365486 (Behavioural Pharmacology, 2012).
Values joined by “and” are separate entries in the source; they are usually repeats but may differ in a detail not shown here. Identical values can stand only once. Counter-ions that a name gives are not always drawn. Marks after values point to notes of the source that are not given here.

Key:
D2 receptor = details: ref McCall et al., 2005; cited from earlier work
D3 or D2 receptor = details: ref Collins et al., 2007; cited from earlier work
D3 receptor = details: ref Millan et al., 2002; cited from earlier work
drug-naïve rats = experiment: Acquisition of IV self-administration under FR1 in drug-naïve rats; format: in vivo, rat; details: for % Met, Both Criteria Met / % Met, criterion ≥ 15 Injections per Session / % Met, criterion ≥ 70% Active Lever Selection: FR1, 18 sessions, n=7
[1] = tested on: rats trained to self-administer cocaine; experiment: Fixed ratio; format: in vivo, rat; details: for FR5 responding when substituted for cocaine, relative to saline: cocaine and 7-OH-DPAT 0.032–1.0, PF-592,379 0.01–1.0 mg/kg/inj i.v., n=6
[2] = tested on: rats trained to self-administer cocaine; experiment: Progressive ratio; format: in vivo, rat; details: for Final Ratio Achieved / Total Injections / Total Responses: maximally effective dose (cocaine 1.0, 7-OH-DPAT 0.32, PF-592,379 0.1 mg/kg/inf), mean (SEM); for PR responding when substituted for cocaine, relative to saline: cocaine 0.032–1.0, 7-OH-DPAT and PF-592,379 0.1–1.0 mg/kg/inj
[3] = molecular target: T1, recombinant human D3 receptors (Homo sapiens, UniProt P35462); experiment: Inhibition of forskolin-stimulated cAMP accumulation in intact CHO cells; format: cell-based
[4] = tested on: rats trained to discriminate 5.6 mg/kg cocaine from saline; details: rat, in vivo; for maximum cocaine-appropriate responding: sc
rats = experiment: Locomotor activity observed at large doses; format: in vivo, rat; details: PF-592,379 doses as large as 32.0 mg/kg
[5] = molecular target: T1, recombinant human D3 receptors; details: cAMP accumulation; ref Attkins et al., 2010; cited from earlier work
[6] = molecular target: recombinant human D2 receptors (Homo sapiens, UniProt P14416); experiment: In vitro competition binding, [3H]U-86170, CHO cell membranes
[7] = molecular target: recombinant human D1 receptors (Homo sapiens, UniProt P21728); experiment: In vitro competition binding, [3H]SCH23390, CHO cell membranes
[8] = molecular target: recombinant human D5 receptors (Homo sapiens, UniProt P21918); experiment: as above
[9] = molecular target: T1, recombinant human D3 receptors; experiment: In vitro competition binding, [3H]spiperone, CHO cell membranes; details: no binding up to 10 µM
[10] = molecular target: T2, recombinant human D4 receptors (Homo sapiens, UniProt P21917); experiment: Inhibition of forskolin-stimulated cAMP accumulation in intact CHO cells; format: cell-based; details: read-out: in vitro Functional Activity EC50, hD4, geometric mean (95%CI)
T2 sequence (P21917 1-419): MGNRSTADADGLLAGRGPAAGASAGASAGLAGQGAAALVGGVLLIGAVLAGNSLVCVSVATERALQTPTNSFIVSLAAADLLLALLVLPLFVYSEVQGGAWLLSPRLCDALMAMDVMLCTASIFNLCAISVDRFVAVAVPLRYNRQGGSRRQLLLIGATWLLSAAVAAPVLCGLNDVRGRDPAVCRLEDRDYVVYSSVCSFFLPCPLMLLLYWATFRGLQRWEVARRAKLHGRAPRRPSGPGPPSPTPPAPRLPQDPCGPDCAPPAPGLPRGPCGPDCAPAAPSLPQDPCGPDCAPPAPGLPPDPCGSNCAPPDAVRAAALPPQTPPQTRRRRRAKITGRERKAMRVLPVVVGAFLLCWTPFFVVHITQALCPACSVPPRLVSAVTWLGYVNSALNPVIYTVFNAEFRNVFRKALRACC

[11] = molecular target: T2, recombinant human D4 receptors; experiment: In vitro competition binding, [3H]spiperone, CHO cell membranes; details: read-out: in vitro Binding Affinity Ki, hD4, geometric mean (95%CI)
[12] = 0.32 mg/kg per injection IV, FR1

T1 sequence (P35462 whole entry): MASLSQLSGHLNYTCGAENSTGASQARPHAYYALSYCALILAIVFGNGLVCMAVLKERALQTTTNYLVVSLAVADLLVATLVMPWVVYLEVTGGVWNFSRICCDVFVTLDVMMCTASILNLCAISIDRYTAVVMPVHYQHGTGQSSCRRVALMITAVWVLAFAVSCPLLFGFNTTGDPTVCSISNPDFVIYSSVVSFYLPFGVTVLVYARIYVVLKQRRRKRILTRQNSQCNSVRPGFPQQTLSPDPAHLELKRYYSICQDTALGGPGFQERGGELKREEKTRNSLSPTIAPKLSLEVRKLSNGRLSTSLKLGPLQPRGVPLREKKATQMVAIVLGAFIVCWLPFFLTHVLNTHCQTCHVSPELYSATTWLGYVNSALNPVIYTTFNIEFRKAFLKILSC
Sequence of recombinant human D5 receptors (P21918 whole entry): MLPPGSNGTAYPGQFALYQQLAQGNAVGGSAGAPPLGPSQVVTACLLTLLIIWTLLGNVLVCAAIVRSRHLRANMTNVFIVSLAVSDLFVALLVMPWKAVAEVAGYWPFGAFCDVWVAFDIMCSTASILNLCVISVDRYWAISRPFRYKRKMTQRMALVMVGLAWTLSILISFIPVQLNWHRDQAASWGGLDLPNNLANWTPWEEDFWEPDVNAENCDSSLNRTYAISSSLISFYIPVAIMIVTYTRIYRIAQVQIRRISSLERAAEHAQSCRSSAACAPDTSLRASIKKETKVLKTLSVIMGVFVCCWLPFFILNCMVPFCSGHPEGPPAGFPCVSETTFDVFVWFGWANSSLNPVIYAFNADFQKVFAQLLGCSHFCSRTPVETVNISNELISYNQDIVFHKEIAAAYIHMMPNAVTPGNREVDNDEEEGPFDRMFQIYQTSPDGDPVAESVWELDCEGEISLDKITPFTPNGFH
Sequence of recombinant human D1 receptors (P21728 whole entry): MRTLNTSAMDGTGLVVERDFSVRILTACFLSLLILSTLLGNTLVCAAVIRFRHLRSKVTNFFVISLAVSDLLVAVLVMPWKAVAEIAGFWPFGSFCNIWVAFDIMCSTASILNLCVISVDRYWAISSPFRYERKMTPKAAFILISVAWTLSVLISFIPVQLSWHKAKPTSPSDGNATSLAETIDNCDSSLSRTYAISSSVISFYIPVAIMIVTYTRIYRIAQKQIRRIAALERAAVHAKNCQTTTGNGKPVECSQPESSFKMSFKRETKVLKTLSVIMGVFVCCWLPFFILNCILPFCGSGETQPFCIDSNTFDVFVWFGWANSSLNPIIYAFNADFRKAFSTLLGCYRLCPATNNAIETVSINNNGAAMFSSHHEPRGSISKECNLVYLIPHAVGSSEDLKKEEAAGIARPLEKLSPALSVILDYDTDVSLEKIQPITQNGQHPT
Sequence of recombinant human D2 receptors (P14416 whole entry): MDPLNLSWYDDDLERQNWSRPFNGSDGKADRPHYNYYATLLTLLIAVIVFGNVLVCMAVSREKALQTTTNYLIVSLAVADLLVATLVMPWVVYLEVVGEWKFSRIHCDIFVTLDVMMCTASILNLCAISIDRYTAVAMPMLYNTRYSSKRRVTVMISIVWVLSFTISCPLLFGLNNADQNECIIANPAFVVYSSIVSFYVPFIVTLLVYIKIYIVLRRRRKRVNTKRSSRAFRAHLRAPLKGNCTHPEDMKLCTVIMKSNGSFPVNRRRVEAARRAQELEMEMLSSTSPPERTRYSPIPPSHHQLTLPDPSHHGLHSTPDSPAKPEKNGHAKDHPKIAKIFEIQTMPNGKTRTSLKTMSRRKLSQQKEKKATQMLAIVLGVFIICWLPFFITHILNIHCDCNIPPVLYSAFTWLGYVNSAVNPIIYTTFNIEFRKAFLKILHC

Row | Compound | range of doses over which the D3 or D2 receptor is selectively activated in vivo (D3 or D2 receptor) [fold] | Sessions to Criteria (SEM), criterion ≥ 15 Injections per Session (drug-naïve rats; [12]) | % Met, Both Criteria Met (drug-naïve rats; 0.32 mg/kg per injection IV) [%] | % Met, criterion ≥ 15 Injections per Session (drug-naïve rats; 0.32 mg/kg per injection IV) [%] | % Met, criterion ≥ 70% Active Lever Selection (drug-naïve rats; 0.32 mg/kg per injection IV) [%] | FR5 responding when substituted for cocaine, relative to saline [1] | Final Ratio Achieved ([2]; PR) | Total Injections ([2]; PR) | Total Responses ([2]; PR) | PR responding when substituted for cocaine, relative to saline [2] | substitution for the discriminative stimulus effects of cocaine [4] | maximum cocaine-appropriate responding [4] | effect on locomotor activity (rats) | other results
1 | CN[C@@H]1Cc2cccc3[nH]c(=O)n(c23)C1 [sumanirole] | ≤ 30 | – | – | – | – | – | – | – | – | – | – | – | – | in vitro radioligand binding selectivity for the D2 over D3 receptor (D2 receptor): ~ 200 fold
2 | CCCN[C@H]1CCc2nc(N)sc2C1 [pramipexole] | ≤ 30 | – | – | – | – | – | – | – | – | – | – | – | – | in vitro radioligand binding selectivity for the D3 over D2 (D3 receptor): ~ 100 fold
3 | COC(=O)[C@H]1[C@@H](OC(=O)c2ccccc2)C[C@@H]2CC[C@H]1N2C [Cocaine, Cocaine HCl] | – | 11.8 (2.4) sessions | 71 | 86 | 71 | maintained dose-dependent levels of responding | 172.0 (40.4) ^*** | 31.0 (3.4) ^*** | 1895.0 (687.3) ^** | monotonic increases in responding | – | – | – | Sessions to Criteria (SEM), Both Criteria Met (drug-naïve rats; [12]): 11.0 (2.3) sessions; Sessions to Criteria (SEM), criterion ≥ 70% Active Lever Selection (drug-naïve rats; [12]): 10.4 (2.1) sessions; doses maintaining significantly more PR responding than saline ([2]; PR, i.v.): ≥ 0.1 mg/kg/inj
4 | CCCN1C[C@@H](c2ccc(N)nc2)OC[C@@H]1C [PF-592,379, 5-[(2R,5S)-5-methyl-4-propylmorpholin-2-yl]pyridin-2-amine] | – | 3 (n.a.) sessions | 0 | 14 | 0 | no different than saline | 8.9 (2.1) | 1.3 (0.5) | 18.5 (11.7) | Low, saline-like levels of responding | nearly exclusive responding on the saline-appropriate lever | 3.5% | only a mild inhibition of locomotor activity | functional selectivity for D3 over D2 receptors [3]: at least 470 fold; drug earned during the first few acquisition sessions (drug-naïve rats; 0.32 mg/kg/inj, FR1): approximately 3 mg/kg; injections per session by the end of the acquisition period (drug-naïve rats; 0.32 mg/kg/inj, FR1): < 5 injections per session; injections per session when substituted for cocaine ([1]; FR5 or PR schedule, doses as large as 1.0 mg/kg): < 5 injections per session; responding at the largest doses tested, relative to baseline [4]: ~ 15 % of baseline; agonist efficacy at the D3 receptor [5]: full agonist; IC50 [6]: ≥ 10000 nM; IC50 [7]: ≥ 10000 nM; IC50 [8]: ≥ 10000 nM; binding selectivity for D3 over D2, D1, and D5 receptors [9]: at least 46 fold
5 | Br.CCCN(CCC)C1CCc2ccc(O)cc2C1 (racemic) [7-OH-DPAT, (±)-7-Hydroxy-2-dipropylaminotetralin HBr] | – | 15.5 (1.5) sessions | 0 | 28 | – | – | – | 17.2 (5.4) | 690.5 (303.7) | – | only partially substituted for cocaine | 59% and ~ 60% | stimulated locomotor activity | EC50 [10]: 45.2 nM; doses maintaining FR5 responding significantly greater than saline ([1]; FR5, i.v.): 0.1 mg/kg/inj; Ki [11]: 110 nM
